Source: ChEMBL document CHEMBL1138716, “Carbonic anhydrase inhibitors. Inhibition of the prokariotic beta and gamma-class enzymes from Archaea with sulfonamides” (Bioorg Med Chem Lett, 2004)

Columns and labels:
Carbonic anhydrase [1] = biological target: T1, Carbonic anhydrase (Methanosarcina thermophila, UniProt P40881)
T1 sequence (P40881 whole entry): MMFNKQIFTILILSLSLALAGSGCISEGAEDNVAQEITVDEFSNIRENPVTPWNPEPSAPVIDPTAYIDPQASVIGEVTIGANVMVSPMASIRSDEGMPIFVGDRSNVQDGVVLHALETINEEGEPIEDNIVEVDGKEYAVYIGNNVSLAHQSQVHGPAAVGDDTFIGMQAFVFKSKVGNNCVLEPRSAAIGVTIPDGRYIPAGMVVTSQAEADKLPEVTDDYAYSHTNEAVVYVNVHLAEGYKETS

Carbonic anhydrase [2] = biological target: T2, Carbonic anhydrase (Methanobacterium thermoautotrophicum, UniProt Q50565)
T2 sequence (Q50565 whole entry): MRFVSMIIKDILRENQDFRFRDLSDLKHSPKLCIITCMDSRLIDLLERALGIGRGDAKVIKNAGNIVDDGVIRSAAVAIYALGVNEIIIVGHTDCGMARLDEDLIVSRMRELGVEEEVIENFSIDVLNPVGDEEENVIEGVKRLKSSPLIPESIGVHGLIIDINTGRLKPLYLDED

Carbonic anhydrase [3] = biological target: T1, Carbonic anhydrase; remark: listed apart in the source

SMILES | Ki (Carbonic anhydrase [1]) [µM] | Ki (Carbonic anhydrase [2]) [µM] | Ki (Carbonic anhydrase [3]) [µM]
CCOc1ccc2nc(S(N)(=O)=O)sc2c1 [ETHOXZOLAMIDE] | 0.74 |  | 
Nc1ccc(S(N)(=O)=O)cc1F | 0.42 | 53.4 | 0.97
Nc1ccc(S(=O)(=O)NCc2ccc(S(N)(=O)=O)cc2)cc1 | 6.36 | 52.4 | 0.18
Nc1cc(C(F)(F)F)c(S(N)(=O)=O)cc1S(N)(=O)=O [2,4-DISULFAMYLTRIFLUOROMETHYLANILINE] |  | 50 | 
Nc1ccc(S(N)(=O)=O)cc1I | 0.66 | 98 | 0.28
NS(N)(=O)=O [SULFAMIDE] | 5.96 | 440000 | 
Nc1ccc(S(N)(=O)=O)cc1Br | 0.28 | 77 | 1.72
NCc1ccc(S(N)(=O)=O)cc1 [MAFENIDE] | 8.5 | 28.5 | 0.35
Nc1ccc(S(N)(=O)=O)cc1 [SULFANILAMIDE] | 3.93 | 57.8 | 0.25
Cc1ccc(-c2cc(C(F)(F)F)nn2-c2ccc(S(N)(=O)=O)cc2)cc1 [CELECOXIB] | 1.01 | 38.5 | 0.14
NCCc1ccc(S(N)(=O)=O)cc1 |  | 25.7 | 
NS(=O)(=O)O [SULFAMATE] | 3.36 | 103000 | 0.09
NNc1ccc(S(N)(=O)=O)cc1 | 0.22 | 127 | 2.2
Nc1cccc(S(N)(=O)=O)c1 | 1.24 | 14.3 | 0.17
Nc1ccc(S(N)(=O)=O)cc1Cl | 0.74 |  | 0.14
CC1(C)O[C@@H]2[C@@H](CO[C@@]3(COS(N)(=O)=O)OC(C)(C)O[C@@H]23)O1 [TOPIRAMATE] | 0.12 | 23.5 | 
